# Assay results from PubChem BioAssay (NCI).
#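 Here, GI50 denotes the concentration required for 50% inhibition of growth. TGI: concentration producing complete growth inhibition.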
# Legend:
# Assay in all cases: NCI-60 cell line screen, 384-well format
# [1] = tested on: SNB-19 CNS
# [2] = tested on: LOX IMVI melanoma
# [3] = tested on: NCI-H226 lung
# [4] = tested on: OVCAR-3 ovarian
# [5] = tested on: HS 578T breast
# [6] = tested on: U251 glioblastoma
# [7] = tested on: COLO 205 colon
# [8] = tested on: NCI-H322M lung
# [9] = tested on: OVCAR-8 ovarian
# [10] = tested on: ACHN renal
# [11] = tested on: A549 NSCLC
# [12] = tested on: SNB-75 CNS
# [13] = tested on: SF-295 CNS
# [14] = tested on: IGROV1 ovarian
# [15] = tested on: UACC-257 melanoma
# [16] = tested on: MOLT-4 leukemia
# [17] = tested on: SW-620 colon
# [18] = tested on: SF-539 CNS
# [19] = tested on: NCI-H460 NSCLC
# [20] = tested on: SN12C renal
# [21] = tested on: HCT-15 colon
# [22] = tested on: CAKI-1 renal
# [23] = tested on: SK-OV-3 ovarian
# [24] = tested on: HCC-2998 colon
# [25] = tested on: MCF7 breast
# [26] = tested on: 786-0 renal
# [27] = tested on: MDA-MB-435 melanoma
# [28] = tested on: OVCAR-4 ovarian
# [29] = tested on: UO-31 renal
# [30] = tested on: HOP-92 NSCLC
# [31] = tested on: HCT-116 colon
# [32] = tested on: RPMI-8226 leukemia
# [33] = tested on: BT-549 breast
# [34] = tested on: MDA-MB-468 breast
# [35] = tested on: MDA-MB-231 breast
# [36] = tested on: CCRF-CEM leukemia
# [37] = tested on: SK-MEL-28 melanoma
# [38] = tested on: DU-145 prostate
# [39] = tested on: A498 renal
# [40] = tested on: SK-MEL-5 melanoma
# [41] = tested on: SF-268 CNS
# [42] = tested on: NCI-H23 lung
# [43] = tested on: M14 melanoma
# [44] = tested on: HL-60(TB) leukemia
# [45] = tested on: HOP-62 NSCLC
# [46] = tested on: EKVX NSCLC
# [47] = tested on: NCI/ADR-RES ovarian
# [48] = tested on: TK-10 renal
# [49] = tested on: UACC-62 melanoma
# [50] = tested on: OVCAR-5 ovarian
# [51] = tested on: KM12 colon
# [52] = tested on: RXF 393 renal
# [53] = tested on: K-562 leukemia
# [54] = tested on: MALME-3M melanoma
# [55] = tested on: NCI-H522 lung
# [56] = tested on: HT29 colon
# [57] = tested on: T-47D breast
# [58] = tested on: PC-3 prostate
# [59] = tested on: SR leukemia
# [60] = tested on: SK-MEL-2 melanoma
smiles,measurement,setting,value
CCN1CCN(c2ccc(Nc3cc(N(C)C(=O)Nc4c(Cl)c(OC)cc(OC)c4Cl)ncn3)cc2)CC1,GI50,[1],2500 nM
same,TGI,[1],7510 nM
same,GI50,[2],1660 nM
same,TGI,[2],3060 nM
same,GI50,[3],24.6 nM
same,TGI,[3],5810 nM
same,GI50,[4],1040 nM
same,TGI,[4],2340 nM
same,GI50,[5],1190 nM
same,TGI,[5],2500 nM
same,GI50,[6],1460 nM
same,TGI,[6],2800 nM
same,GI50,[7],1940 nM
same,TGI,[7],3440 nM
same,GI50,[8],2300 nM
same,TGI,[8],6250 nM
same,GI50,[9],1770 nM
same,TGI,[9],3380 nM
same,GI50,[10],1400 nM
same,TGI,[10],3000 nM
same,GI50,[11],1910 nM
same,TGI,[11],3850 nM
same,GI50,[12],193 nM
same,TGI,[12],2290 nM
same,GI50,[13],1750 nM
same,TGI,[13],3160 nM
same,GI50,[14],273 nM
same,TGI,[14],702 nM
same,GI50,[15],1610 nM
same,TGI,[15],2960 nM
same,GI50,[16],1170 nM
same,TGI,[16],2390 nM
same,GI50,[17],1840 nM
same,TGI,[17],3470 nM
same,GI50,[18],1420 nM
same,TGI,[18],2830 nM
same,GI50,[19],1230 nM
same,TGI,[19],2530 nM
same,GI50,[20],753 nM
same,TGI,[20],2200 nM
same,GI50,[21],688 nM
same,TGI,[21],2390 nM
same,GI50,[22],590 nM
same,TGI,[22],2120 nM
same,GI50,[23],365 nM
same,TGI,[23],1360 nM
same,GI50,[24],1920 nM
same,TGI,[24],3890 nM
same,GI50,[25],1410 nM
same,TGI,[25],2950 nM
same,GI50,[26],1430 nM
same,TGI,[26],2760 nM
same,GI50,[27],1880 nM
same,TGI,[27],3340 nM
same,GI50,[28],1280 nM
same,TGI,[28],3360 nM
same,GI50,[29],1370 nM
same,TGI,[29],2670 nM
same,GI50,[30],1700 nM
same,TGI,[30],3360 nM
same,GI50,[31],1440 nM
same,TGI,[31],2800 nM
same,GI50,[32],1900 nM
same,TGI,[32],3330 nM
same,GI50,[33],518 nM
same,TGI,[33],1990 nM
same,GI50,[34],1290 nM
same,TGI,[34],2610 nM
same,GI50,[35],2130 nM
same,TGI,[35],4720 nM
same,GI50,[36],1580 nM
same,TGI,[36],2950 nM
same,GI50,[37],1860 nM
same,TGI,[37],3280 nM
same,GI50,[38],1760 nM
same,TGI,[38],5320 nM
same,GI50,[39],478 nM
same,TGI,[39],1920 nM
same,GI50,[40],1300 nM
same,TGI,[40],2580 nM
same,GI50,[41],1110 nM
same,TGI,[41],2610 nM
same,GI50,[42],2340 nM
same,TGI,[42],6210 nM
same,GI50,[43],1390 nM
same,TGI,[43],2690 nM
same,GI50,[44],1880 nM
same,TGI,[44],3300 nM
same,GI50,[45],1910 nM
same,TGI,[45],3930 nM
same,GI50,[46],1190 nM
same,TGI,[46],2930 nM
same,GI50,[47],2160 nM
same,TGI,[47],4890 nM
same,GI50,[48],1550 nM
same,TGI,[48],3440 nM
same,GI50,[49],1720 nM
same,TGI,[49],3130 nM
same,GI50,[50],2180 nM
same,TGI,[50],5140 nM
same,GI50,[51],2230 nM
same,TGI,[51],4300 nM
same,GI50,[52],1290 nM
same,TGI,[52],2590 nM
same,GI50,[53],430 nM
same,TGI,[53],1480 nM
same,GI50,[54],1470 nM
same,TGI,[54],2800 nM
same,GI50,[55],475 nM
same,TGI,[55],1460 nM
same,GI50,[56],756 nM
same,TGI,[56],2020 nM
same,GI50,[57],453 nM
same,TGI,[57],1420 nM
same,GI50,[58],2040 nM
same,TGI,[58],4950 nM
Cc1nc(N)sc1-c1ccnc(Nc2ccc(N3CCOCC3)cc2)n1,GI50,[1],4420 nM
same,TGI,[1],> 100000 nM
same,GI50,[2],767 nM
same,TGI,[2],2530 nM
same,GI50,[3],416 nM
same,TGI,[3],2530 nM
same,GI50,[4],1070 nM
same,TGI,[4],23100 nM
same,GI50,[5],302 nM
same,TGI,[5],1560 nM
same,GI50,[6],1540 nM
same,TGI,[6],17900 nM
same,GI50,[7],756 nM
same,TGI,[7],16200 nM
same,GI50,[8],1650 nM
same,TGI,[8],26900 nM
same,GI50,[11],440 nM
same,TGI,[11],7610 nM
same,GI50,[12],653 nM
same,TGI,[12],2410 nM
same,GI50,[13],627 nM
same,TGI,[13],5700 nM
same,GI50,[14],305 nM
same,TGI,[14],2090 nM
same,GI50,[15],3680 nM
same,TGI,[15],9900 nM
same,GI50,[16],22.4 nM
same,TGI,[16],115 nM
same,GI50,[59],32.9 nM
same,TGI,[59],121 nM
same,GI50,[17],397 nM
same,TGI,[17],2390 nM
same,GI50,[18],499 nM
same,TGI,[18],1900 nM
same,GI50,[19],224 nM
same,TGI,[19],3130 nM
same,GI50,[21],328 nM
same,TGI,[21],15300 nM
same,GI50,[22],381 nM
same,TGI,[22],2050 nM
same,GI50,[23],411 nM
same,TGI,[23],4870 nM
same,GI50,[24],3880 nM
same,TGI,[24],42000 nM
same,GI50,[25],1620 nM
same,TGI,[25],23200 nM
same,GI50,[26],1420 nM
same,TGI,[26],6740 nM
same,GI50,[27],1740 nM
same,TGI,[27],18700 nM
same,GI50,[28],46000 nM
same,TGI,[28],> 100000 nM
same,GI50,[29],619 nM
same,TGI,[29],3090 nM
same,GI50,[30],433 nM
same,TGI,[30],4490 nM
same,GI50,[31],557 nM
same,TGI,[31],4160 nM
same,GI50,[32],375 nM
same,TGI,[32],2120 nM
same,GI50,[33],190 nM
same,TGI,[33],676 nM
same,GI50,[34],132 nM
same,TGI,[34],330 nM
same,GI50,[35],371 nM
same,TGI,[35],4950 nM
same,GI50,[36],127 nM
same,TGI,[36],1060 nM
same,GI50,[37],1380 nM
same,TGI,[37],7040 nM
same,GI50,[38],709 nM
same,TGI,[38],75500 nM
same,GI50,[60],2190 nM
same,TGI,[60],5560 nM
same,GI50,[39],433 nM
same,TGI,[39],3720 nM
same,GI50,[40],1600 nM
same,TGI,[40],8430 nM
same,GI50,[41],663 nM
same,TGI,[41],5730 nM
same,GI50,[42],1380 nM
same,TGI,[42],7560 nM
same,GI50,[43],2410 nM
same,TGI,[43],28000 nM
same,GI50,[44],642 nM
same,TGI,[44],2400 nM
same,GI50,[45],504 nM
same,TGI,[45],4580 nM
same,GI50,[46],1350 nM
same,TGI,[46],5830 nM
same,GI50,[47],2650 nM
same,TGI,[47],> 100000 nM
same,GI50,[48],376 nM
same,TGI,[48],7480 nM
same,GI50,[49],482 nM
same,TGI,[49],3370 nM
same,GI50,[50],854 nM
same,TGI,[50],9330 nM
same,GI50,[51],378 nM
same,TGI,[51],15300 nM
same,GI50,[52],922 nM
same,TGI,[52],2570 nM
same,GI50,[53],1150 nM
same,TGI,[53],> 100000 nM
same,GI50,[54],2700 nM
same,TGI,[54],> 100000 nM
same,GI50,[55],142 nM
same,TGI,[55],3020 nM
same,GI50,[56],596 nM
same,TGI,[56],2140 nM
same,GI50,[57],5420 nM
same,TGI,[57],68600 nM
same,GI50,[58],463 nM
same,TGI,[58],8530 nM
